# According to ChEMBL document CHEMBL1201862, “PubChem BioAssay data set” (2004):
# The source made the active and inactive calls.
# Key:
# Vero [1] = test: cells; assay type: functional, cell-based; settings: Chlorocebus sabaeus
# Vero [2] = test: cells; assay type: functional; settings: Chlorocebus sabaeus
# [3] = inhibitors of HIV Env-driven cell fusion, dose response, cherry-pick (AID 652057); assay type: functional, cell-based
# [4] = off-target signal loss in HeLa-CEM21 co-culture – HeLa F-luc CTL cells, cherry-picked, counter-screen for HIV-1 Env fusion inhibitor project, dose response (AID 652040); assay type: functional, cell-based;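 note: potency for signal decrease marking cytotoxic or nonspecific inhibition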
# [5] = inhibitors of clade B AD8 Env fusion, dose response, cell-based, cherry-pick (AID 652062); assay type: functional;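 note: luciferase signal from cell-cell fusion driven by HIV-1 clade B AD8 Env; potency is for inhibitors of fusion seen as a drop in luminescence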
# [6] = ZM109 Env clade C HIV-1 fusion inhibitors, dose response, HeLa effector, CEM target cells, luciferase, cherry-pick (AID 652058); assay type: functional, cell-based
# [7] = nonselective inhibitors of cellular cAMP signaling, dose response, counter-screen for MC4R biased antagonist project, cell-based, TR-FRET cAMP detection (AID 602305); assay type: functional;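 note: U2OS cells stimulated with forskolin near its EC80 as the cAMP inducer; potency is for inhibition of forskolin-stimulated cAMP signaling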
# Melanocortin receptor 4 = Melanocortin receptor 4 (Homo sapiens, UniProt P32245); test: MC4R antagonist potency on cAMP, dose response, cell-based, TR-FRET, biased antagonists (AID 602298); assay type: functional;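 note: antagonist potency against agonist-stimulated cAMP production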
# Sequence of Melanocortin receptor 4 (P32245 whole entry): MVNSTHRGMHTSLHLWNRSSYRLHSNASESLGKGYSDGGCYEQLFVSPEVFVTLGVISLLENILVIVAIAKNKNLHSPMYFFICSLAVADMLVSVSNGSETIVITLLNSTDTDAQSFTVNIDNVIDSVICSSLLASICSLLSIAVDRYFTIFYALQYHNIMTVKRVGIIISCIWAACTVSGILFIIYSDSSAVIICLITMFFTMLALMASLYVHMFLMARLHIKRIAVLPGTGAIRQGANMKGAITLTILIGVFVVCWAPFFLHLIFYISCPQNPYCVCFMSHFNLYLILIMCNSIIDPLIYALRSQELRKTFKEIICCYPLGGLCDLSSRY
# cells [8] = assay type: functional, cell-based
# cells [9] = assay type: functional, cell-based; remark: listed apart in the source
# Beta-galactosidase = Beta-galactosidase (Escherichia coli, UniProt Q8VNN2); test: Dose response counterscreen for EBI2 assay utilizing the enzyme, b-galactosidase.; assay type: functional
# Sequence of Beta-galactosidase (Q8VNN2 whole entry): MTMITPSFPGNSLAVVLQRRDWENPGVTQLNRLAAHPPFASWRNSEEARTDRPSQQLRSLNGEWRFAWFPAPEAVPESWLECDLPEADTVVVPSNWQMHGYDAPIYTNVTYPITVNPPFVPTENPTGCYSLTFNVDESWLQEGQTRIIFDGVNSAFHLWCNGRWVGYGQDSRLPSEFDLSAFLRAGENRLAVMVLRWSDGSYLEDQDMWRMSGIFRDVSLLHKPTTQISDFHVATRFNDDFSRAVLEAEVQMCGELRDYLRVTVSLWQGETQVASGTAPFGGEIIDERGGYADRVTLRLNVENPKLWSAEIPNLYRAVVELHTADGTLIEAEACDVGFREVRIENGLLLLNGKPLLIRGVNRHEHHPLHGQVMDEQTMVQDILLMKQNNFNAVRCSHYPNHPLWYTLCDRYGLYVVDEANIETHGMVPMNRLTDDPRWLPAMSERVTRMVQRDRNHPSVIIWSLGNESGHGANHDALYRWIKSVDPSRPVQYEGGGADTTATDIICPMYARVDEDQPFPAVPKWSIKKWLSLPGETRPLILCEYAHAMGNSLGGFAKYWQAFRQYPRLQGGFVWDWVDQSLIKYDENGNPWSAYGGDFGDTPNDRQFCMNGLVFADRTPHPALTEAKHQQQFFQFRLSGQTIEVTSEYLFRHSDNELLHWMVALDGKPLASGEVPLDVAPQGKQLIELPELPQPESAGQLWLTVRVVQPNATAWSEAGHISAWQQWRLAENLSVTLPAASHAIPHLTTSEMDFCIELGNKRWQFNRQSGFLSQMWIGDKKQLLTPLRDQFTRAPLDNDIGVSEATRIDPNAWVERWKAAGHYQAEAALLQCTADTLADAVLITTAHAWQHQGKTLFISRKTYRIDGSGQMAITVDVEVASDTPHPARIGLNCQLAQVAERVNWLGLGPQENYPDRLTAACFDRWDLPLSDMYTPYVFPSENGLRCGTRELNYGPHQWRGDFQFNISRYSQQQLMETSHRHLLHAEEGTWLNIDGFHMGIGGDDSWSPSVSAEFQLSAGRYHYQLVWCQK
# [10] = test system: Streptococcus sp. 'group A'; test: growth inhibition of control SK(-) GAS strain, dose response, counter-screen for streptokinase expression inhibitor project, luminescence, kanamycin, BacTiterGlo, confirmation (AID 1900); assay type: functional, organism-based
# Streptokinase A = target: T1, Streptokinase A (Streptococcus pyogenes serotype M1, UniProt P10520); test: S. pyogenes streptokinase expression inhibitors, potency, dose response, plasminogen activation absorbance, OD405 (AID 1914); assay type: functional, Streptococcus pyogenes M1 GAS;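 note: secreted streptokinase activity via plasminogen activation per viability signal from cell pellet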
# T1 sequence (P10520 whole entry): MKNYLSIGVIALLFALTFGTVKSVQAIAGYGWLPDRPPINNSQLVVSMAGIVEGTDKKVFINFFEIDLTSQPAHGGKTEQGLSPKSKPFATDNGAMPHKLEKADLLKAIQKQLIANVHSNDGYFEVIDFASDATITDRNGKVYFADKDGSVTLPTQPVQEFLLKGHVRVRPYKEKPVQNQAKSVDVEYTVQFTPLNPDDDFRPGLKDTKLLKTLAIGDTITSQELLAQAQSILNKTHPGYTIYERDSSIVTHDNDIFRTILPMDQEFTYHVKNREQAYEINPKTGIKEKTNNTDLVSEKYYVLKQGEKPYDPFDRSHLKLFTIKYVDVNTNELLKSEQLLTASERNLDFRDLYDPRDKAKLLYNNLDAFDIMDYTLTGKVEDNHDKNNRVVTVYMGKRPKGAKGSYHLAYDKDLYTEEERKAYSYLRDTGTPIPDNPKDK
# [11] = inhibitors of intracellular T. cruzi replication, confirmation, NIH3T3 host cells, beta-gal luminescence (AID 2044); assay type: functional, cell-based;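 note: intracellular parasites grown in NIH/3T3 mouse fibroblasts as host cells; luminescent beta-galactosidase reporter signal from transgenic T. cruzi replicating inside host cells; inhibitors lower the luminescence signal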
# Streptococcus = test: Group A Streptococcus viability loss, dose response, counter-screen for streptokinase expression inhibitor project, luminescence, BacTiterGlo (AID 1915); assay type: functional, organism-based;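 note: potency for reduction of bacterial viability or growth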
# [12] = cytotoxicity in HEK-293T cells, dose response, cytotoxicity control for BCR NF-kB inhibitor project, luminescence, B-cell screen hits (AID 489021); assay type: functional, cell-based;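 note: HEK-293T cells carrying an NF-kB luciferase reporter; cells exposed to compound for about 14 hours before viability readout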
# [13] = HepG2 cell cytotoxicity, dose response, cytotoxicity control for Shn3 inhibitor project, CellTiter-Glo, cherry-picked (AID 624134); assay type: functional, cell-based
# [14] = control 3'UTR Renilla luciferase suppression, dose response, counter-screen for Shn3 inhibitor project, cell-based, Clone20-Shn3RL, cherry-picked (AID 624133); assay type: functional
# [15] = Shn3 3'UTR reporter inhibitors, dose response, cell-based, Clone20 osteoblasts, firefly luciferase, cherry-picked (AID 624132); assay type: functional;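 note: firefly luciferase luminescence from reporter carrying the Shn3 3'UTR in osteoblasts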
compound,measurement,setting,value
CCOC(=O)c1c(SCCN2CCCCC2)n(-c2ccccc2)c(=S)n(-c2ccccc2)c1=O,IC50,Vero [1],20.1 µM (active)
same,CC50,Vero [2],> 25 µM (active)
COc1cc(C(=O)N2CCN(c3ncnc4sc(C)c(C)c34)CC2)cc(OC)c1OC,AC50,[3],33.7 µM (active)
same,AC50,[4],24.4 µM (active)
same,AC50,[5],8.4 µM (active)
same,AC50,[6],6.73 µM (active)
O=S(=O)(c1ccc(F)cc1)N1CCN(c2nc(-c3cccnc3)nc3ccccc23)CC1,IC50,[7],> 64.6 µM (inactive)
same,IC50,Melanocortin receptor 4,> 64.6 µM (inactive)
COc1cc(/C=N/CC2OCCc3ccccc32)cc(OC)c1 (centres undefined),IC50,cells [8],> 29.9 µM (inactive)
same,EC50,cells [9],> 29.9 µM (inactive)
Cc1cc(OCC(=O)N(C)Cc2ccccc2)ccc1Br,IC50,Beta-galactosidase,> 80 µM (inactive)
Cc1ccc(Nc2nc(N/N=C\c3ccc4c(c3)OCO4)nc(N3CCOCC3)n2)cc1,EC50,[10],21.8 µM (active)
same,EC50,Streptokinase A,111 µM (active)
same,EC50,[11],0.393 µM (active)
same,EC50,Streptococcus,> 150 µM (not active)
same,IC50,[12],63.2 µM (inactive)
Cc1nc2ccccc2c2oc(C(=O)N3CCN(C4CCCCC4)CC3)cc12,AC50,[13],68.8 µM (active)
same,IC50,Beta-galactosidase,> 80 µM (inactive)
same,AC50,[14],3.44 µM (active)
same,AC50,[15],7.02 µM (active)
COc1ccccc1C1(CCNC(C)c2cccs2)CCOC(C(C)C)C1 (centres undefined),IC50,[7],> 64.5 µM (inactive)
same,IC50,Melanocortin receptor 4,10.1 µM (inactive)
COc1cccc(-c2noc(C3CCCN(S(=O)(=O)c4cccc(Cl)c4C)C3)n2)c1 (centres undefined),AC50,[3],6.22 µM (active)
same,AC50,[4],16.5 µM (active)
same,AC50,[5],11.9 µM (active)
same,AC50,[6],10.9 µM (active)
O=C1C2CCCN2C(c2ccccc2)N1c1ccc(Cl)cc1 (centres undefined),IC50,Vero [1],> 25 µM (active)
COc1ccc(-n2cc(-c3ccc(Br)cc3)nc2S)cc1,IC50,Beta-galactosidase,> 80 µM (inactive)
Cc1ccc(OCC(=O)N2CCN(S(=O)(=O)c3ccc4c(c3)OCCO4)CC2)c(C)c1,IC50,Beta-galactosidase,> 80 µM (inactive)
